Experimental data as given in patent publication US8222290B2, “Substituted N-phenyl-bipyrrolidine ureas and therapeutic use thereof” (Sanofi, priority 2007, dated 2012).
Structures can show the parent of a compound that is named as a salt.

The molecules below were run against T1, rhesus H3 receptor (Macaca mulatta, UniProt Q865E1) (assay: Rhesus H3 [3H]-Methylhistamine radioligand binding assay (SPA)). Details: [3H]-Methylhistamine 2 nM, rhesus H3 membranes, Cheng-Prusoff.
T1 construct: rhesus monkey (Macacca Mulatta) 445 amino acid H3 receptor; (Genbank #AY231164); expressed in transfected cells; host or cells: Flp-In T-REx 293 Cell Line (Invitrogen), pcDNA5/FRT/TO, induced with tetracycline; membranes
Set-up: species or system rhesus monkey (Macacca Mulatta)
Procedure: Rhesus H3 membranes were prepared from the Flp-In T-REx 293 Cell Line (Invitrogen) stably transfected with pcDNA5/FRT/TO (Invitrogen) containing the rhesus monkey (Macacca Mulatta) 445 amino acid H3 receptor. (Genbank #AY231164). Stably transfected cultures were amplified in tissue culture flasks by standard tissue culture methods and induced to express rhesus H3 by exposure to 500 ng/ml tetracycline (Cellgro) for 24 hours. After induction, cells were dissociated from flasks utilizing Cell Stripper (Cellgro). Cells were centrifuged (1K×g, 5 min) and pellet frozen in an ethanol-dry ice bath to disrupt cell membranes. Frozen cell pellet was re-suspended in 5 mM HEPES (pH 7.4, Invitrogen) at 10 ml/1000 cm2 of harvested cells. The cell suspension was drawn through an 18 gauge needle (2-3×) followed by a 23 gauge needle (2-3×) to further disrupt cell membranes. The cell suspension was centrifuged (40K×g, 30 min). Cell membrane pellet was re-suspended in 5 mM HEPES (pH 7.4, Invitrogen) at a final protein concentration of 10 mg/ml. Rhesus H3 membranes were stored under liquid nitrogen prior to use in [3H]-Methylhistamine and GTPγS radioligand binding assays.
Rhesus H3 radioligand binding assay was performed using rhesus H3 receptor membranes (prepared as described above), [3H]-Methylhistamine (Perkin Elmer) and WGA SPA beads (wheat germ agglutinin scintillation proximity assay) beads (Amersham). The assay was performed in 96-well Opti-Plates (Packard). Each reaction contained 50 μl rhesus H3 membranes (20-30 μg total protein), 50 μl WGA SPA beads (0.1 μg) and 50 μl of 83Ci/mmol [^3H]-Methylhistamine (final concentration 2 nM) and 50 μl of tested compound. The compounds of this invention and/or vehicle were diluted with binding buffer from 10 mM DMSO stocks. Assay plates were sealed with TopSeal (Perkin Elmer) and mixed on shaker (25° C., 1 hour). Assay plates were read on TopCount scintillation counter (Packard). Results were analyzed by Hill transformation and Ki values were determined by Cheng-Prusoff equation.

T1 sequence (Q865E1 1-445): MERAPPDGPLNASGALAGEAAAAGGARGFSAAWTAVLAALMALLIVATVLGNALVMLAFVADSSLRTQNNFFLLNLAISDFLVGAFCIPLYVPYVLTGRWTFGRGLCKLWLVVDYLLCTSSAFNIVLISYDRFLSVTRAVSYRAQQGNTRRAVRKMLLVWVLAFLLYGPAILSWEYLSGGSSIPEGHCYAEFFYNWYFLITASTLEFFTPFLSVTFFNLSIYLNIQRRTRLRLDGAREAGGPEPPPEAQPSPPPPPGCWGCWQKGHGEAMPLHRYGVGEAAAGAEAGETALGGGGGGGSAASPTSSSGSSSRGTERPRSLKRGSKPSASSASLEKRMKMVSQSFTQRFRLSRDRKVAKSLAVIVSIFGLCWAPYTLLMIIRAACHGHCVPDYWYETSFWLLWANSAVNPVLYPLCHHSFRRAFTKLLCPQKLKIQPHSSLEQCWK

Compound | Ki [nM]
CC1CCCN1C1CCN(c2ccc(NC(=O)N3CCCCC3)cc2)C1 (stereo not shown) [Example 1, Piperidine-1-carboxylic acid [4-(2-methyl-[1,3′]bipyrrolidinyl-1′-yl)-phenyl]-amide trifluoroacetate] | 6
CC(=O)N(C)C1CCN(C(=O)Nc2ccc(N3CCC(N4CCCC4C)C3)c(C)c2)C1 (stereo not shown) [Example 2, 3-(Acetyl-methyl-amino)-pyrrolidine-1-carboxylic acid [3-methyl-4-(2-methyl-[1,3′]bipyrrolidinyl-1′-yl)-phenyl]-amide trifluoroacetate] | 89.7
CC1CCCN1C1CCN(c2ccc(NC(=O)NC3CCCCC3)cc2)C1 (stereo not shown) [Example 3, 1-Cyclohexyl-3-[4-(2-methyl-[1,3′]bipyrrolidinyl-1′-yl)-phenyl]-urea trifluoroacetate] | 4.1
CC1CCCN1C1CCN(c2ccc(NC(=O)N3CCN(c4ccccc4)CC3)cc2)C1 (stereo not shown) [Example 4, 4-Phenyl-piperazine-1-carboxylic acid [4-(2-methyl-[1,3′]bipyrrolidinyl-1′-yl)-phenyl]-amide trifluoroacetate] | 10.6
CC1CCCN1C1CCN(c2ccc(NC(=O)N3CCN(C)CC3)cc2)C1 (stereo not shown) [Example 5, 4-Methyl-piperazine-1-carboxylic acid [4-(2-methyl-[1,3′]bipyrrolidinyl-1′-yl)-phenyl]-amide trifluoroacetate] | 25.7
CC1CCCN1C1CCN(c2ccc(NC(=O)N3Cc4ccccc4C3)cc2)C1 (stereo not shown) [Example 6, 1,3-Dihydro-isoindole-2-carboxylic acid [4-(2-methyl-[1,3′]bipyrrolidinyl-1′-yl)-phenyl]-amide trifluoroacetate] | 11.1
CC1CCCN1C1CCN(c2ccc(NC(=O)Nc3cccc(C#N)c3)cc2)C1 (stereo not shown) [Example 7, 1-(3-Cyano-phenyl)-3-[4-(2-methyl-[1,3′]bipyrrolidinyl-1′-yl)-phenyl]-urea trifluoroacetate] | 7.7
CC1CCCN1C1CCN(c2ccc(NC(=O)NCc3cccs3)cc2)C1 (stereo not shown) [Example 8, 1-[4-(2-Methyl-[1,3′]bipyrrolidinyl-1′-yl)-phenyl]-3-thiophen-2-ylmethyl-urea trifluoroacetate] | 2
Cc1cc(NC(=O)NCc2cc(Cl)cc(Cl)c2)ccc1N1CCC(N2CCCC2C)C1 (stereo not shown) [Example 9, 1-(3,5-Dichloro-benzyl)-3-[3-methyl-4-(2-methyl-[1,3′]bipyrrolidinyl-1′-yl)-phenyl]-urea trifluoroacetate] | 28.9
Cc1cc(NC(=O)NC2CCCCC2)ccc1N1CCC(N2CCCC2C)C1 (stereo not shown) [Example 10, 1-Cyclohexyl-3-[3-methyl-4-(2-methyl-[1,3′]bipyrrolidinyl-1′-yl)-phenyl]-urea trifluoroacetate] | 11.2
Cc1cc(NC(=O)NCc2cccs2)ccc1N1CCC(N2CCCC2C)C1 (stereo not shown) [Example 11, 1-[3-Methyl-4-(2-methyl-[1,3′]bipyrrolidinyl-1′-yl)-phenyl]-3-thiophen-2-ylmethyl-urea trifluoroacetate] | 8.4
CC1CCCN1C1CCN(c2ccc(NC(=O)Nc3cc(Cl)cc(Cl)c3)cc2)C1 (stereo not shown) [Example 12, 1-(3,5-Dichloro-phenyl)-3-[4-(2-methyl-[1,3′]bipyrrolidinyl-1′-yl)-phenyl]-urea trifluoroacetate] | 19.1
CC(=O)N1CCN(C(=O)Nc2ccc(N3CCC(N4CCCC4C)C3)cc2)CC1 (stereo not shown) [Example 13, 4-Acetyl-piperazine-1-carboxylic acid [4-(2-methyl-[1,3′]bipyrrolidinyl-1′-yl)-phenyl]-amide trifluoroacetate] | 34.1
CC(=O)N(C)C1CCN(C(=O)Nc2ccc(N3CCC(N4CCCC4C)C3)cc2)C1 (stereo not shown) [Example 14, 3-(Acetyl-methyl-amino)-pyrrolidine-1-carboxylic acid [4-(2-methyl-[1,3′]bipyrrolidinyl-1′-yl)-phenyl]-amide trifluoroacetate] | 35.5
Cc1cc(N2CCC(N3CCCC3C)C2)ccc1NC(=O)Nc1cc(Cl)cc(Cl)c1 (stereo not shown) [Example 15, 1-(3,5-Dichloro-phenyl)-3-[2-methyl-4-(2-methyl-[1,3′]bipyrrolidinyl-1′-yl)-phenyl]-urea trifluoroacetate] | 22.2
Cc1cc(N2CCC(N3CCCC3C)C2)ccc1NC(=O)NC1CCCCC1 (stereo not shown) [Example 16, 1-Cyclohexyl-3-[2-methyl-4-(2-methyl-[1,3′]bipyrrolidinyl-1′-yl)-phenyl]-urea trifluoroacetate] | 4.6
Cc1cc(N2CCC(N3CCCC3C)C2)ccc1NC(=O)N1CCN(C)CC1 (stereo not shown) [Example 17, 4-Methyl-piperazine-1-carboxylic acid [2-methyl-4-(2-methyl-[1,3′]bipyrrolidinyl-1′-yl)-phenyl]-amide trifluoroacetate] | 10.5
Cc1cc(N2CCC(N3CCCC3C)C2)ccc1NC(=O)N1Cc2ccccc2C1 (stereo not shown) [Example 18, 1,3-Dihydro-isoindole-2-carboxylic acid [2-methyl-4-(2-methyl-[1,3′]bipyrrolidinyl-1′-yl)-phenyl]-amide trifluoroacetate] | 10.8
Cc1cc(NC(=O)Nc2cc(Cl)cc(Cl)c2)ccc1N1CCC(N2CCCC2C)C1 (stereo not shown) [Example 19, 1-(3,5-Dichloro-phenyl)-3-[3-methyl-4-(2-methyl-[1,3′]bipyrrolidinyl-1′-yl)-phenyl]-urea trifluoroacetate] | 43
Cc1cc(NC(=O)N2CCN(C)CC2)ccc1N1CCC(N2CCCC2C)C1 (stereo not shown) [Example 20, 4-Methyl-piperazine-1-carboxylic acid [3-methyl-4-(2-methyl-[1,3′]bipyrrolidinyl-1′-yl)-phenyl]-amide trifluoroacetate] | 12.7
Cc1cc(NC(=O)N2Cc3ccccc3C2)ccc1N1CCC(N2CCCC2C)C1 (stereo not shown) [Example 21, 1,3-Dihydro-isoindole-2-carboxylic acid [3-methyl-4-(2-methyl-[1,3′]bipyrrolidinyl-1′-yl)-phenyl]-amide trifluoroacetate] | 8
CC(=O)N1CCN(C(=O)Nc2ccc(N3CCC(N4CCCC4C)C3)c(C)c2)CC1 (stereo not shown) [Example 22, 4-Acetyl-piperazine-1-carboxylic acid [3-methyl-4-(2-methyl-[1,3′]bipyrrolidinyl-1′-yl)-phenyl]-amide trifluoroacetate] | 23
Cc1cc(NC(=O)Nc2cccc(C#N)c2)ccc1N1CCC(N2CCCC2C)C1 (stereo not shown) [Example 23, 1-(3-Cyano-phenyl)-3-[3-methyl-4-(2-methyl-[1,3′]bipyrrolidinyl-1′-yl)-phenyl]-urea trifluoroacetate] | 6.3
Cc1cc(NC(=O)N2CCCCC2)ccc1N1CCC(N2CCCC2C)C1 (stereo not shown) [Example 24, Piperidine-1-carboxylic acid [3-methyl-4-(2-methyl-[1,3′]bipyrrolidinyl-1′-yl)-phenyl]-amide trifluoroacetate] | 29
CC1CCCN1C1CCN(c2ccc(NC(=O)NCc3cc(Cl)cc(Cl)c3)c(C(F)(F)F)c2)C1 (stereo not shown) [Example 25, 1-(3,5-Dichloro-benzyl)-3-[4-(2-methyl-[1,3′]bipyrrolidinyl-1′-yl)-2-trifluoromethyl-phenyl]-urea trifluoroacetate] | 18.1
